Experimental data: patent US9669029B2, “Heteroaromatic phenylimidazole derivatives as PDE10A enzyme inhibitors” (H. Lundbeck A/S, priority 2009, dated 2017)
pIC50: −log10 of the molar value.

Key:
[1] = target: PDE10A (Homo sapiens (Human), UniProt Q9Y233); test: PDE10A inhibition assay; format: biochemical
Experimental: Active PDE10A enzyme is prepared in a number of ways for use in PDE assays (Loughney, K. et al. Gene 1999, 234, 109-117; Fujishige, K. et al. Eur J Biochem. 1999, 266, 1118-1127 and Soderling, S. et al. Proc. Natl. Acad. Sci. 1999, 96, 7071-7076). PDE10A can be expressed as full-length proteins or as truncated proteins, as long as they express the catalytic domain. PDE10A can be prepared in different cell types, for example insect cells or E. coli. […]
A PDE10A assay may for example, be performed as follows: The assay is performed in 60 uL samples containing a fixed amount of the relevant PDE enzyme (sufficient to convert 20-25% of the cyclic nucleotide substrate), a buffer (50 mM HEPES7.6; 10 mM MgCl2; 0.02% Tween20), 0.1 mg/ml BSA, 225 pCi of ^3H-labelled cyclic nucleotide substrate, tritium labeled cAMP to a final concentration of 5 nM and varying amounts of inhibitors. […] The beads are allowed to settle for one hr in the dark before the plates are counted in a Wallac 1450 Microbeta counter. The measured signal can be converted to activity relative to an uninhibited control (100%) and IC50 values can be calculated using the Xlfit extension to EXCEL.

[2] = test system: rats; settings: cited from earlier work

PDE10A, sequence (Q9Y233 716-1055): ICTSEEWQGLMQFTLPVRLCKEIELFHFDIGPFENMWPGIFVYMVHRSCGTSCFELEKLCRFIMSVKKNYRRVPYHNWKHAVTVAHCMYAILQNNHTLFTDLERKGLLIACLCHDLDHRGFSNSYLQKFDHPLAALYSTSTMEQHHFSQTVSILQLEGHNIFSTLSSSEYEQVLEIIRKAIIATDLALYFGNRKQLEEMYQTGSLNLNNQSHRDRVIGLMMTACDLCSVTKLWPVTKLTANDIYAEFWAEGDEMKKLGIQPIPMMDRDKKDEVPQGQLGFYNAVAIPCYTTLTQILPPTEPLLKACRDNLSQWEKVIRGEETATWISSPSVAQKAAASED

Row | SMILES | pIC50 [1] | catalepsy on its own ([2]; papaverine alone) | effect on the cataleptic effect of the D2 receptor antagonist haloperidol ([2]; with haloperidol)
1 | COc1cccn2nc(/C=C/c3nc(-c4ccc(C)o4)cn3C)nc12 [8-Methoxy-2-{(E)-2-[1-methyl-4-(5-methyl-furan-2-yl)-1H-imidazol-2-yl]-vinyl}-[1,2,4]triazolo[1,5-a]pyridine] | 6.85 |  | 
2 | Cc1cccn2nc(CCc3nc(-c4cccnc4)cn3C)nc12 [8-Methyl-2-[2-(1-methyl-4-pyridin-3-yl-1H-imidazol-2-yl)-ethyl]-[1,2,4]triazolo[1,5-a]pyridine] | 7.12 |  | 
3 | COc1ccc(Cc2nccc3cc(OC)c(OC)cc23)cc1OC [Papaverine, papaverine] |  | did not cause catalepsy | potentiated
